The results in this text go back to patent publication US10632132B2, “Methods for treating heart transplant rejection” (priority 2018, dated 2020).

In assay [1] the test system is fully mismatched heterotopic heart allograft. Kind of assay: Fully mismatched heterotopic heart allograft survival in rats. In kind it is in vivo, rat (Lewis 1W donor, Lewis 1A receptor). Conditions: rat; SANA 100 mg/kg or 50 mg/kg by oral gavage daily from day −1 to day 15 post-transplantation; compared with control (vehicle) and precursor drug SA 100 mg/kg; FIG. 3. Here is the method:
(§1) While not wishing to be bound by theory, NLRP3 inflammasome activation is a mechanism that mediates the rejection of allotransplantation and in one embodiment of the described invention, it is a possible therapeutic target to treat allotransplantation of a heart. […] C57BL/6 mice were treated with SANA or salicylic acid (SA) (100 mg/kg, IP) or the vehicle (DMSO) for 1 hour. Then were injected with LPS (10 mg/kg, IP) or PBS for 2 hours, with subsequent peritoneal washes and blood extractions. Peritoneal wash and plasma were stored to measure IL-1β by ELISA. […] Rats were administrated with SANA or SA (100 mg/kg), SANA (50 mg/kg) or vehicle (Phosphate buffer) by oral gavage every day since day −1 until day 15 post-transplantation. Heart heterotopic transplantation was done by implantation of the donor heart (Lewis 1W rat) into the receptor abdomen (Lewis 1A rat). Rejection was diagnosed when the heart lost functionality (beats has stopped).

Assay [2] concerns NF-κB and NLRP3 inflammasome-dependent IL-1β release. Kind of assay: LPS-induced IL-1β release in mice, measured by ELISA in plasma and peritoneal wash. In kind it is in vivo. The settings on record: C57BL/6 mice, 100 mg/kg IP for 1 hour, then LPS 10 mg/kg IP for 2 hours. As for the experimental part:
as §1
Background: In an ELISA, binding on a coated surface is turned into a signal by an enzyme label.

For `O=C(O)c1cc(/C=C/[N+](=O)[O-])ccc1O` [SANA, 2-hydroxy-5-(2-nitroethenyl)benzoic acid], the “heart graft survival (rejection = heart beats stopped)” value in assay [1] was “prolonged the heart grafted survival”. Besides, the “effect on NF-κB and NLRP3 inflammasome-dependent IL-1β release in the peritoneum” value in assay [2] (peritoneal wash, FIG. 2) is “inhibitory effect”. Also, the “effect on NF-κB and NLRP3 inflammasome-dependent IL-1β release in the plasma” value in assay [2] (plasma, FIG. 1) is “inhibitory effect”.
